Measured values as given in patent publication US20090275667A1, “USE OF ALLICIN AS PRESERVATIVE, AS DISINFECTANT, AS ANTIMICROBIAL OR AS BIOCIDAL AGENT” (Stone Island Holdings Ltd, priority 2003, published 2009).
Converted amounts (≈) assume the structure as drawn.

Columns and labels:
Ascosphaera apis = experiment: MIC by broth microdilution, bee pathogens; assay type: cell-based; settings: range 1000 ppm to 0.25 ppm
Description: (§1) We tested allicia (Allisure™ Liquid) activity against several species of entomopathogenic bacteria (Paenibacillus larvae subsp. larvae, Paenibacillus larvae subsp. pulvifaciens) and fungi (Ascosphaera apis and Ascosphaera aggregata) using broth microdilution method to determine minimum inhibitory concentration (MIC) and the agar diffusion test (Kirby-Bauer) to determine zone of inhibition. Bacterial spores were isolated from the diseased honey bee larval samples. […]
(§2) Fungal spores (Ascosphaera apis) were collected from black honey bee mummies and (Ascosphaera aggregata) spores were collected from the diseased leaf cutter bees. […] The fungal colonies were analyzed by microscopic preparations of aerial mycelia and fungal spore cysts. […]
(§3) Positive controls contained the antibiotic Tylosin (Tylan® 50, Elanco Animal Health Inc., IN) and negative controls contained no antibiotics. […] The optical densities of cultures (OD 600) were recorded 24 h and 48 h post inoculation, depending on the growth rate of the microbial species. […] Minimum bactericidal concentration values (NBC) were determined for allicin by plating out 100 μl of bacterial cultures derived from the MIC assay. […]

Ascosphaera aggregata = experiment: MIC by broth microdilution, bee pathogens; assay type: cell-based; settings: range 1000 ppm to 0.25 ppm
Description: as §1, §2, §3

M. plutonius = experiment: Investigation into bacteriostatic or bactericidal effects (Study 2); assay type: cell-based, Melissococcus plutonius; settings: conclusion from subculture after exposure
Experimental: Where there was no growth in a replicate, at the end of one week the culture was plated out for single colonies on the appropriate agar. This was to determine whether the test item had bactericidal activity, where all the bacterial cells are killed, or bacteriostatic action, where the cells are unable to replicate in the presence of the substance, but will grow when it is removed. A further test, where 0.5 ml of the broth was transferred into 4.5 ml fresh broth (giving a 1:10 dilution) was also undertaken. There would still be some Allicin in the broth, but it should be present at a low enough concentration for growth not to be affected. Where growth occurred in the absence of Allicin, the broth was examined microscopically and plated out for single colonies to confirm the identity of the bacterium.

[1] = system: Enterococcus hirae (University of Brighton isolate); experiment: Modified Kelsey-Sykes test; assay type: cell-based; design: key: CG = Confluent growth
Description: Allicin can be used to displace or supplement existing harmful forms of disinfectant/biocide such as chlorine, sodium hypochlorite, ozone and per-acetic acid all of which can have an adverse effect on the environment. UV radiation is also used for disinfection but power and general running costs are high. Laboratory studies have been conducted on our behalf using allicin on aqueous suspensions of bacterial species commonly used as indicators of the effectiveness of water and wastewater disinfection. To this effect, identified isolates from the faecal coliform and streptococcus groups, namely, Escherichia coli (NCTC 8156) and Enterococcus hirae (University of Brighton isolate) were used in all experiments. […]
Stock suspensions of Escherichia coli (NCTC 8156) and Enterococcus hirae (University of Brighton isolate) were cultivated in Nutrient Broth No. 2 from freeze dried isolates. Prior to each experiment, serial dilutions of the suspensions were enumerated by the spread plate method on Nutrient Agar and subsequent incubation at 37 deg C.
Initial experimental procedures were based on the methods set out in an established UK protocol (BS 6905: 1987). The Kelsy-Sykes methodology was developed as a guide to the concentrations of disinfectants which may be recommended for use under “dirty” (wastewater/sewage) conditions. It is therefore a suitable means of establishing the effectiveness of a disinfectant against a wastewater containing particulate and dissolved contaminants in addition to micro-organisms.
Therefore, with regard to wastewater/sewage considerations, the protocol was adapted. Under the revised methodology, a sample was taken from the bacterial suspension/biocide mix after the prescribed contact time and plated out onto solid media so that a colony count could be made (see Tables 1 and 2).

Salm. Enteriditis = experiment: Zones of Inhibition against common chicken bacteria; assay type: cell-based
[2] = allicin conc. 0.9 % (w/v), 10 mins
[3] = allicin conc. 0.9 % (w/v), 20 mins
[4] = allicin conc. 0.9 % (w/v), 30 mins
[5] = allicin conc. 1.08 % (w/v), 10 mins
[6] = allicin conc. 1.08 % (w/v), 20 mins
[7] = allicin conc. 1.26 % (w/v), 10 mins
[8] = allicin conc. 1.26 % (w/v), 20 mins
[9] = allicin conc. 1.62 % (w/v), 10 mins
[10] = allicin conc. 1.62 % (w/v), 20 mins

SMILES: C=CCS[S+]([O-])CC=C (stereo not shown) [allicin, Allicin]
- MIC (Ascosphaera apis): 250 µg/mL (≈ 1540 µM)
- MIC (Ascosphaera aggregata): 250 µg/mL (≈ 1540 µM)
- bacteriostatic or bactericidal effect (M. plutonius): bacteriostatic rather than bactericidal effects
- Numbers of colony forming units killed [1, 2]: CG
- Percentage reduction in colony forming units [1, 2]: CG
- Numbers of colony forming units killed [1, 3]: CG
- Percentage reduction in colony forming units [1, 3]: CG
- Numbers of colony forming units killed [1, 4]: CG
- Percentage reduction in colony forming units [1, 4]: CG
- Numbers of colony forming units killed [1, 5]: CG
- Percentage reduction in colony forming units [1, 5]: CG
- Numbers of colony forming units killed [1, 6]: CG
- Percentage reduction in colony forming units [1, 6]: CG
- Percentage reduction in colony forming units ([1]; allicin conc. 1.08 % (w/v), 30 mins): 77%
- Numbers of colony forming units killed [1, 7]: CG
- Percentage reduction in colony forming units [1, 7]: CG
- Numbers of colony forming units killed [1, 8]: CG
- Percentage reduction in colony forming units [1, 8]: CG
- Percentage reduction in colony forming units ([1]; allicin conc. 1.26 % (w/v), 30 mins): 91%
- Percentage reduction in colony forming units ([1]; allicin conc. 1.4 % (w/v), 10 mins): CG
- Percentage reduction in colony forming units ([1]; allicin conc. 1.4 % (w/v), 20 mins): CG
- Percentage reduction in colony forming units ([1]; allicin conc. 1.4 % (w/v), 30 mins): 87%
- Numbers of colony forming units killed ([1]; allicin conc. 1.44 % (w/v), 10 mins): CG
- Numbers of colony forming units killed ([1]; allicin conc. 1.44 % (w/v), 20 mins): CG
- Numbers of colony forming units killed [1, 9]: CG
- Percentage reduction in colony forming units [1, 9]: CG
- Numbers of colony forming units killed [1, 10]: CG
- Percentage reduction in colony forming units [1, 10]: CG
- Percentage reduction in colony forming units ([1]; allicin conc. 1.62 % (w/v), 30 mins): 89%
- zone of inhibition (Salm. Enteriditis; 166 ppm (1:6 dilution)): 0 mm
- zone of inhibition (Salm. Enteriditis; 1000 ppm): 22 mm
